# Tests used:
# [1] = system: L1210 cell line; test: Growth inhibition of L1210 cells (MTT assay); format: cell-based; conditions: Mus musculus, L1210, 72 hours, 37° C.
# Protocol: (§1) Cell suspensions were prepared (at 5.6×10^6 cells/ml) by using RPMI 1640 medium for L1210 cell line, RPMI 1640 medium containing 20 μM 2-mercaptoethanol (all the media containing 10% bovine serum) for P388 cell line and an adriamycin resistant P388 cell line, Eagle's MEM medium for KB cell line, and α-MEM medium for CHO cell line.
# (§2) Test samples (0624-A and 0624-B) were individually dissolved in methanol and serially diluted with the individual media in a series of 2-fold dilution starting from a concentration of 0.1 mg/ml. The cell suspensions (each of 180 μl) and each test sample (20 μl) were divided in a 96-well microtiter plate, and subjected to culturing in wet atmosphere of 5% CO2 -95% air at 37° C. 72 hours after, cell growth was determined by the calorimetric assay using 3-(4, 5-dimethyl-z-thiazolyl)-2,5-diphenyl-2H-tetrazolium bromide (MTT). More specifically, 20 μl each of 2 mg/ml MTT solution was added into each well, followed by culturing at 37° C. for 4 hours. Then, 50 μl of 50 % dimethylformamide solution containing 20% sodium dodecyl sulfate was added to each well, which was left to stand. The resulting formed violet formazan crystal was solubilized and subjected to determination of absorbance at 570 nm, by using a microplate reader (Immunoreader), which was used as the indicator of growth. […]
# [2] = system: N. brasiliensis IFM0236; test: Antimicrobial activity (MIC), N. brasiliensis; format: cell-based; conditions: N. brasiliensis IFM0236, Muller-Hinton broth, 24 hours, 37° C.
# Protocol: (§3) The antimicrobial activity of compound 0624 was confirmed through the assaying of the minimum growth inhibitory concentration (MIC).
# (§4) The MICs of compound 0624 against various bacteria were determined in a Muller-Hinton broth (BBL) containing 0.2% glucose, according to the standard defined by the Japan Chemotherapy Association (The Essentials of Antibiotics, the 4-th edition, Tokyo University Press, 1992).
# (§5) The test bacteria were adjusted to 1×10^8 cfu/ml in the broth, and then used as test bacteria solutions.
# (§6) The test samples (compounds 0624-A and 0624-B) were, separately, dissolved in methanol and were then serially diluted with the broth in a series of 2-fold dilution, starting from a concentration of 0.1 mg/ml. Each test bacteria solution (180 μl) and each test sample (20 μl) were divided in a 96-well microtiter plate, and cultured at 37° C. After 24 hours, the MIC was observed and calculated by the eye, and the resulting MIC was defined as MIC value.
# [3] = system: Bacillus subtilis PC1189; test: Antimicrobial activity (MIC), Bacillus subtilis; format: cell-based; conditions: Bacillus subtilis PC1189, Muller-Hinton broth, 24 hours, 37° C.
# Protocol: as §3, §4, §5, §6
# [4] = system: N. farcinica IFM0284; test: Antimicrobial activity (MIC), N. farcinica; format: cell-based; conditions: Nocardia farcinica; N. farcinica IFM0284, Muller-Hinton broth, 24 hours, 37° C.
# Protocol: as §3, §4, §5, §6
# [5] = system: Mycobacterium smegmatis ATCC607; test: Antimicrobial activity (MIC), Mycobacterium smegmatis; format: cell-based; conditions: Mycolicibacterium smegmatis; Mycobacterium smegmatis ATCC607, Muller-Hinton broth, 24 hours, 37° C.
# Protocol: as §3, §4, §5, §6
# [6] = system: P388 cell line; test: Growth inhibition of P388 cells (MTT assay); format: cell-based; conditions: Mus musculus, P388, 72 hours, 37° C.
# Protocol: as §1, §2
# [7] = system: KB cell line; test: Growth inhibition of KB cells (MTT assay); format: cell-based; conditions: Homo sapiens, 72 hours, 37° C.
# Protocol: as §1, §2
# [8] = Solubility; format: physicochemical
# [9] = system: Adriamycin resistant P388 cell line; test: Growth inhibition of adriamycin resistant P388 cells (MTT assay); format: cell-based; conditions: Mus musculus, Adriamycin resistant P388, 72 hours, 37° C.
# Protocol: as §1, §2
# [10] = system: N. nova IFM0290; test: Antimicrobial activity (MIC), N. nova; format: cell-based; conditions: N. nova IFM0290, Muller-Hinton broth, 24 hours, 37° C.
# Protocol: as §3, §4, §5, §6
# [11] = system: cell lines L1210, P388, adriamycin resistant P388, KB and CHO; test: Growth inhibition of the tumor cell line panel (MTT assay), summary in words; format: cell-based
# Protocol: as §1, §2
# [12] = system: Staphylococcus aureus 209P; test: Antimicrobial activity (MIC), Staphylococcus aureus; format: cell-based; conditions: Muller-Hinton broth, 24 hours, 37° C.
# Protocol: as §3, §4, §5, §6
# [13] = system: M. phlei ATCC11758; test: Antimicrobial activity (MIC), M. phlei; format: cell-based; conditions: Mycolicibacterium phlei; M. phlei ATCC11758, Muller-Hinton broth, 24 hours, 37° C.
# Protocol: as §3, §4, §5, §6
# [14] = system: Micrococcus luteus IFM2066; test: Antimicrobial activity (MIC), Micrococcus luteus; format: cell-based; conditions: Micrococcus luteus IFM2066, Muller-Hinton broth, 24 hours, 37° C.
# Protocol: as §3, §4, §5, §6
# [15] = system: CHO cell line; test: Growth inhibition of CHO cells (MTT assay); format: cell-based; conditions: Cricetulus griseus, 72 hours, 37° C.
# Protocol: as §1, §2
# [16] = system: gram-positive bacteria; test: Antimicrobial activity, summary in words; format: cell-based; conditions: gram-positive bacteria of Table 6
# Protocol: as §3, §4, §5, §6
# [17] = system: N. otitidiscaviarum IFM0239; test: Antimicrobial activity (MIC), N. otitidiscaviarum; format: cell-based; conditions: N. otitidiscaviarum IFM0239, Muller-Hinton broth, 24 hours, 37° C.
# Protocol: as §3, §4, §5, §6
# [18] = system: Nocardia transvalensis IFM0333; test: Antimicrobial activity (MIC), Nocardia transvalensis; format: cell-based; conditions: Nocardia transvalensis IFM0333, Muller-Hinton broth, 24 hours, 37° C.
# Protocol: as §3, §4, §5, §6
# [19] = system: M. flavescens ATCC14474; test: Antimicrobial activity (MIC), M. flavescens; format: cell-based; conditions: Mycolicibacterium flavescens; M. flavescens ATCC14474, Muller-Hinton broth, 24 hours, 37° C.
# Protocol: as §3, §4, §5, §6
# [20] = system: N. asteroides IFM0319; test: Antimicrobial activity (MIC), N. asteroides; format: cell-based; conditions: Nocardia asteroides; N. asteroides IFM0319, Muller-Hinton broth, 24 hours, 37° C.
# Protocol: as §3, §4, §5, §6
# [21] = in chloroform, ether and hexane
# [22] = in water, methanol, ethanol, DMSO and ethyl acetate
Compound,IC50 [1] [µg/mL],MIC [2] [µg/mL],MIC [3] [µg/mL],MIC [4] [µg/mL],MIC [5] [µg/mL],IC50 [6] [µg/mL],IC50 [7] [µg/mL],"Solubility [8, 21]","Solubility [8, 22]",IC50 [9] [µg/mL],MIC [10] [µg/mL],growth inhibitory activities against the cell lines [11],MIC [12] [µg/mL],MIC [13] [µg/mL],MIC [14] [µg/mL],IC50 [15] [µg/mL],antimicrobial activity against gram-positive bacteria [16],MIC [17] [µg/mL],MIC [18] [µg/mL],MIC [19] [µg/mL],further results
COc1ccc(O)c2c1C(=O)c1cc3c(c(O)c1C2=O)C(OC1CC(C)(N(C)C)C(O)C(C)O1)C(OC)C(C)(O)C3=O (stereo not drawn) [Compound 0624-A],0.15,6.25,6.25,3.13,1.56,0.47,1.06,Insoluble,Soluble,0.97,0.78,have the growth inhibitory activities,3.13,0.78,1.56,12.3,wide spectrum of antimicrobial activity,1.56,3.13,3.13,MIC [20]: 1.56 µg/mL
COc1ccc(O)c2c1C(=O)c1cc3c(c(O)c1C2=O)C(OC1CC(C)(N(C)C)C(OC(C)=O)C(C)O1)C(OC)C(C)(O)C3=O (stereo not drawn) [Compound 0624-B],0.18,> 100,3.13,12.5,3.13,0.59,1.32,Insoluble,Soluble,1.05,1.56,have the growth inhibitory activities,100,3.13,12.5,18.6,wide spectrum of antimicrobial activity,> 100,6.25,12.5,MIC [20]: 3.13 µg/mL

# — US5965407A, “Anthracycline compound 0624” (Higeta Shoyu Co. Ltd., priority 1997, dated 1999)
